Reference: US12303509B2, “Compounds for the treatment of BRAF-associated diseases and disorders” (Pfizer Inc., priority 2020, dated 2025)
Where a name gives a salt, the structure may show the parent alone. Read-outs that look alike come from different tables or passages of the source.

Key:
A375 cells = experiment: Cellular phospho-ERK inhibition assay in A375 cells; type: cell-based; details: Homo sapiens, A-375, A375 cells (head prints A357), 2 hours treatment, read-out: A357 cell IC50
How it was run: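 In Cell Western detection of phospho-ERK1/2 (Thr202/Tyr204) over GAPDH after 2 h compound exposure (66 pM to 10 μM, 9 points, 0.25% DMSO) of A375 cells in DMEM or H1755 cells in RPMI, both with 10% FBS. Percent of control set by DMSO and 10 μM binimetinib; 4-parameter IC50.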

P-gp (MDR1) = P-gp (MDR1) (Homo sapiens (Human), UniProt P08183); experiment: MDR1 LLC-PK1 permeability assay: efflux ratio; type: in vitro ADME; details: pig
Text: (§1) Final organic concentration in the assay was 1%.

[1] = target: full-length FLAG-tagged B-Raf(V600E) (Homo sapiens (Human), UniProt P15056, V600E); experiment: BRAF V600E enzyme assay (TR-FRET competitive displacement); type: binding
How it was run: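 TR-FRET tracer competition: compound (top dose 10 μM, 3-fold, 11 points) incubated 60 min at ambient temperature with FLAG-tagged full-length B-Raf(V600E) (5 nM), Eu anti-FLAG cryptate (0.5 nM) and tracer (50 nM), pH 7.4 HEPES/MgCl2 buffer. 665/615 ratio converted to percent of control; IC50 where fitted curve crosses 50 POC.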

BCRP = BCRP (Homo sapiens (Human), UniProt Q9UNQ0); experiment: BCRP MDCKII permeability assay: efflux ratio; type: in vitro ADME; details: dog
[2] = MDR1 LLC-PK1 and BCRP MDCKII permeability assay: permeability coefficient (Papp); type: in vitro ADME
Text: as §1

H1755 cells = experiment: Cellular phospho-ERK inhibition assay in H1755 cells; type: cell-based; details: Homo sapiens, NCI-H1755, 2 hours treatment, read-out: H1755 Cell IC50
Description: A375 and H1755 cells were obtained from the American Type Culture Collection (ATCC, Rockville, MD). A375 cells were maintained in DMEM growth medium containing 10% FBS. H1755 cells were maintained in RPMI growth medium containing 10% FBS.
Cells were harvested according to standard protocols, counted and plated onto flat-bottom, 96-well tissue culture plates (Costar #3599) at 2.5×10^4 cells/well for A375 cells and 1.5×10^4 cells/well for H1755 cells in 100 μL/well of growth medium containing 10% FBS. After an overnight incubation at 37° C. with 5% CO2 cells were treated for 2 hours at 37° C., 5% CO2 with compounds prepared as a 9-point, 1:3.33 fold dilution series with final compound concentrations ranging from 66 pM-10 μM and a constant DMSO concentration of 0.25%. Control wells contained either 0.25% DMSO alone (uninhibited control) or 10 μM binimetinib (complete inhibition control). The levels of phosphorylated ERK are determined using an In Cell Western protocol: following compound incubation, growth medium was discarded, and cells were fixed with 0.4% formaldehyde in PBS for 20 minutes at room temperature. Cells were permeabilized with 100% methanol for 10 minutes at room temperature. Plates were washed with PBS containing 0.05% Tween-20 and blocked for 1 hour at room temperature with LI-COR Blocking Buffer (LI-COR Biosciences; Cat #927-40000). Plates were then incubated for 2 hours at room temperature with 50 μL of a 1:400 dilution of anti-phospho-ERK1/2 (Thr202/Tyr204) (Cell Signaling; Cat #9101) and a 1:1000 dilution of anti-GAPDH (Millipore; Cat #MAB374) in LI-COR blocking buffer containing 0.05% Tween-20. Plates were washed with PBS containing […] Tween-20 then incubated at room temperature for 1 hour with 50 μL of a 1:1000 dilution of anti-rabbit AlexaFluor 680 (Life Technologies; Cat #A21109) and a 1:1000 dilution of anti-mouse IRDye 800CW (LI-COR; Cat #926-32210) in LI-COR blocking buffer containing 0.05% Tween-20. Plates were analyzed by reading on an Odyssey CLx infrared scanner. For each well, the phospho-ERK signal was normalized to the GAPDH signal and converted to POC using the following equation:
[formula] • Where: • Xmax Average Uninhibited Controls • Xmin Average Complete Inhibition Controls IC50 values were then calculated using a 4-parameter fit in XLfit software and are provided in Table A1.

[3] = averaged IC50, TR-FRET tracer displacement, 60 min

Sequence of full-length FLAG-tagged B-Raf(V600E) (P15056 whole entry V600E): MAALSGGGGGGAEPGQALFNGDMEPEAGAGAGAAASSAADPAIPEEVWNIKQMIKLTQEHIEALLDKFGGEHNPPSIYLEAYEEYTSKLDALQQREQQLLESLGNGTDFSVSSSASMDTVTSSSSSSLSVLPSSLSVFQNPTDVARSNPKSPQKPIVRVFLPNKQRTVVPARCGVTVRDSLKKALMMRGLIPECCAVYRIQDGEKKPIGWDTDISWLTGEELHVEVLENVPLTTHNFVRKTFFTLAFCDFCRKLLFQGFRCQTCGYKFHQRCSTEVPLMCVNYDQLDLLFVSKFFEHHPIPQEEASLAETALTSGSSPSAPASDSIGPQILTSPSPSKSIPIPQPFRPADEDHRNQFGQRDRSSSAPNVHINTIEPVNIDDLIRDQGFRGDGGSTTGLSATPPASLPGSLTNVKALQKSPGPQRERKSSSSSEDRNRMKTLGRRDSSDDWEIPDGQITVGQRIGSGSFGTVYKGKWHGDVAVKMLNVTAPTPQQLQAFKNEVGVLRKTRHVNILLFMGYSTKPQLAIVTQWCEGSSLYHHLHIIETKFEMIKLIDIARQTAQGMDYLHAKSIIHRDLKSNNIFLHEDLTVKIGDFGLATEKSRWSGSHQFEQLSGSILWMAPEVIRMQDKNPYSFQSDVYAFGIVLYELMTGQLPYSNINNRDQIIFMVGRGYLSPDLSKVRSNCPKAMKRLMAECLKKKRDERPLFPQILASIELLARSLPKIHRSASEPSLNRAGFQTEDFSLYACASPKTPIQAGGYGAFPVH
Sequence of P-gp (MDR1) (P08183 whole entry, species assumed): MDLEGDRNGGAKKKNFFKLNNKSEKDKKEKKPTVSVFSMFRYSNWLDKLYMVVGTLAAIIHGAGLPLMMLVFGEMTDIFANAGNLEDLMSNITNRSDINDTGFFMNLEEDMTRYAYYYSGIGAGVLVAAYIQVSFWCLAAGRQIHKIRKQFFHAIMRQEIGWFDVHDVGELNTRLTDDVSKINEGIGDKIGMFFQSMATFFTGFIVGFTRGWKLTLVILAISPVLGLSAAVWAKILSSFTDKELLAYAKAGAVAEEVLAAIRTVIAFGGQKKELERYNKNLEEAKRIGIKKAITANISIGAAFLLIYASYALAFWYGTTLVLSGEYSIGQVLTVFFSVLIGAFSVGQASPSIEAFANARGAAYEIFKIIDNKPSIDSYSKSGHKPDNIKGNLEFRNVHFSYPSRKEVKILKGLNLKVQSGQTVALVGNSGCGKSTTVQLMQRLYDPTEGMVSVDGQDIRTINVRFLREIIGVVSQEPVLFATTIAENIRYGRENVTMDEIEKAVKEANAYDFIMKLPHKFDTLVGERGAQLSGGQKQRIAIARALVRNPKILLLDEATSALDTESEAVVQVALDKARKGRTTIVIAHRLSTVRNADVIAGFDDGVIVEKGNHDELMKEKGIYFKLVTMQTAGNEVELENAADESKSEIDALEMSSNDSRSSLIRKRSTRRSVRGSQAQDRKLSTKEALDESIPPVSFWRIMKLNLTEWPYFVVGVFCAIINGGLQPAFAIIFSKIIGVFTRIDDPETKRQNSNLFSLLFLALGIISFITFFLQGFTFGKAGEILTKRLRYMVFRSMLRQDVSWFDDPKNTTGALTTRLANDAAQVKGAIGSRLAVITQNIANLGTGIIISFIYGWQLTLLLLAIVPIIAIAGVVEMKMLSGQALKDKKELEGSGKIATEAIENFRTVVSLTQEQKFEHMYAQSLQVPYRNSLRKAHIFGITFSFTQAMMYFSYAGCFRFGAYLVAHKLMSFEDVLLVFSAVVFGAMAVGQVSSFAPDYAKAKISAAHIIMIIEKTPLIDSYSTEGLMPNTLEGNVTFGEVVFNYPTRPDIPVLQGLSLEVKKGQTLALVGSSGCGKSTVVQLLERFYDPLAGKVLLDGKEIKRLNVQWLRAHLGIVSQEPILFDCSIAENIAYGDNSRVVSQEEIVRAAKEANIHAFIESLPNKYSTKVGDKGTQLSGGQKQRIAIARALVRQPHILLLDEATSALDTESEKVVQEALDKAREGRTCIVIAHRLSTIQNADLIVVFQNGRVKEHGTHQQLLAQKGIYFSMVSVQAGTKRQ
Sequence of BCRP (Q9UNQ0 whole entry): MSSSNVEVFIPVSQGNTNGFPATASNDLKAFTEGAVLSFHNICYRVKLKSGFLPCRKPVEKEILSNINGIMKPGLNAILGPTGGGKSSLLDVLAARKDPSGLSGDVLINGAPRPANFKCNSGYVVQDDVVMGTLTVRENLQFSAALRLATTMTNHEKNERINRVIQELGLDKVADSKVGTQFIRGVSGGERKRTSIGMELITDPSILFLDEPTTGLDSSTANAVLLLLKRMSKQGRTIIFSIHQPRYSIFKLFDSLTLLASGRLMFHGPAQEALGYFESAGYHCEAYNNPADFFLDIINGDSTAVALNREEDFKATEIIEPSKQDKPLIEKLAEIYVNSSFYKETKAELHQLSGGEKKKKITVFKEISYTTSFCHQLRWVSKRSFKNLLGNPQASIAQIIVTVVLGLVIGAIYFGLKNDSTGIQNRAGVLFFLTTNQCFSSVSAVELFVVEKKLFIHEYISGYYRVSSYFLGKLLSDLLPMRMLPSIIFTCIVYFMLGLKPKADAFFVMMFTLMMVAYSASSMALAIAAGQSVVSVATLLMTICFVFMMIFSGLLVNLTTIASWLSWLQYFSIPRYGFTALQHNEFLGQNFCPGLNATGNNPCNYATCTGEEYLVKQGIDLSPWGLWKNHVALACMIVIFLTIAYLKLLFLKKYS

CCN(C)S(=O)(=O)Nc1cc(F)c(F)c(Nc2ccc3ncn(C)c(=O)c3c2C)c1Cl [Example 97, N-(2-chloro-3-((3,5-dimethyl-4-oxo-3,4-dihydroquinazolin-6-yl)amino)-4,5-difluorophenyl)-(N-ethyl-N-methyl)-sulfamide] gave an IC50 (A375 cells) of 88 nM, an efflux ratio at 2 h, 1 µM (P-gp (MDR1)) of 0.9 and an IC50 [1, 3] of 10 nM. The efflux ratio at 2 h, 1 µM (BCRP) was 1.8, the Papp at 2 h, 1 µM [2] was 30 ×10⁻⁶ cm/s and the IC50 (H1755 cells) was 610 nM.

Cn1cnc2ccc(Nc3c(F)c(F)cc(NS(=O)(=O)N4CCCC4)c3F)c(Cl)c2c1=O [Example 43, N-(3-((5-chloro-3-methyl-4-oxo-3,4-dihydroquinazolin-6-yl)amino)-2,4,5-trifluorophenyl)pyrrolidine-1-sulfonamide trifluoroacetate] showed an IC50 (A375 cells) of 4 nM, an efflux ratio at 2 h, 1 µM (P-gp (MDR1)) of 1.8 and an IC50 [1, 3] of 1 nM. It also gave an efflux ratio at 2 h, 1 µM (BCRP) of 1.9, a Papp at 2 h, 1 µM [2] of 32 ×10⁻⁶ cm/s and an IC50 (H1755 cells) of 45 nM.

CO[C@@H]1CN(S(=O)(=O)Nc2ccc(F)c(Nc3ccc4ncn(C)c(=O)c4c3Cl)c2Cl)C[C@@H]1F (relative stereo) [Example 18, cis-N-(2-chloro-3-((5-chloro-3-methyl-4-oxo-3,4-dihydroquinazolin-6-yl)amino)-4-fluorophenyl)-3-fluoro-4-methoxypyrrolidine-1-sulfonamide] showed an IC50 (A375 cells) of 2 nM, an efflux ratio at 2 h, 1 µM (P-gp (MDR1)) of 3 and an IC50 [1, 3] of 4 nM. It also gave an efflux ratio at 2 h, 1 µM (BCRP) of 4.9, a Papp at 2 h, 1 µM [2] of 40 ×10⁻⁶ cm/s and an IC50 (H1755 cells) of 18 nM.

Cc1c(Nc2cc(F)cc(NS(=O)(=O)N3CC[C@@H](F)C3)c2Cl)ccc2ncn(C)c(=O)c12 [Example 151, (R)-N-(2-chloro-3-((3,5-dimethyl-4-oxo-3,4-dihydroquinazolin-6-yl)amino)-5-fluorophenyl)-3-fluoropyrrolidine-1-sulfonamide] gave an IC50 (A375 cells) of 283 nM, an efflux ratio at 2 h, 1 µM (P-gp (MDR1)) of 1.5 and an IC50 [1, 3] of 14 nM. It also gave an efflux ratio at 2 h, 1 µM (BCRP) of 1.8, a Papp at 2 h, 1 µM [2] of 28 ×10⁻⁶ cm/s and an IC50 (H1755 cells) of 538 nM.

Work on Cn1cnc2ccc(Oc3c(F)ccc(NS(=O)(=O)N4CCC(F)(F)C4)c3Cl)c(F)c2c1=O [Example 63, N-(2-chloro-4-fluoro-3-((5-fluoro-3-methyl-4-oxo-3,4-dihydroquinazolin-6-yl)oxy)phenyl)-3,3-difluoropyrrolidine-1-sulfonamide] yielded an IC50 (A375 cells) of 7 nM, an efflux ratio at 2 h, 1 µM (P-gp (MDR1)) of 1.7 and an IC50 [1] of 1 nM. The efflux ratio at 2 h, 1 µM (BCRP) was 3.6, the Papp at 2 h, 1 µM [2] was 39 ×10⁻⁶ cm/s and the IC50 (H1755 cells) was 84 nM.

With [2H]C([2H])([2H])O[C@@H]1CCN(S(=O)(=O)Nc2ccc(F)c(Nc3ccc4ncn(C)c(=O)c4c3F)c2Cl)C1 [Example 54, (R)-N-(2-chloro-4-fluoro-3-((5-fluoro-3-methyl-4-oxo-3,4-dihydroquinazolin-6-yl)amino)phenyl)-3-(methoxy-d3)pyrrolidine-1-sulfonamide trifluoroacetate] the IC50 (A375 cells) was 4 nM, the efflux ratio at 2 h, 1 µM (P-gp (MDR1)) was 3.6 and the IC50 [1, 3] was 17 nM. For the same compound, the efflux ratio at 2 h, 1 µM (BCRP) was 3, the Papp at 2 h, 1 µM [2] was 31 ×10⁻⁶ cm/s and the IC50 (H1755 cells) was 33 nM.

Cc1c(Nc2c(F)ccc(NS(=O)(=O)N3CC[C@@H](OC(F)F)C3)c2Cl)ccc2ncn(C)c(=O)c12 [Example 89] gave an IC50 (A375 cells) of 50 nM, an efflux ratio at 2 h, 1 µM (P-gp (MDR1)) of 1.3 and an IC50 [1, 3] of 14 nM. It also gave an efflux ratio at 2 h, 1 µM (BCRP) of 1, a Papp at 2 h, 1 µM [2] of 21 ×10⁻⁶ cm/s and an IC50 (H1755 cells) of 173 nM.

For Cn1cnc2ccc(Nc3c(F)c(F)cc(NS(=O)(=O)N4CC[C@@H](F)C4)c3Cl)c(Cl)c2c1=O [Example 33, (R)-N-(2-chloro-3-((5-chloro-3-methyl-4-oxo-3,4-dihydroquinazolin-6-yl)amino)-4,5-difluorophenyl)-3-fluoropyrrolidine-1-sulfonamide trifluoroacetate], the IC50 (A375 cells) was 8 nM, the efflux ratio at 2 h, 1 µM (P-gp (MDR1)) was 1.7 and the IC50 [1, 3] was 1 nM. The efflux ratio at 2 h, 1 µM (BCRP) was 2.2, the Papp at 2 h, 1 µM [2] was 25 ×10⁻⁶ cm/s and the IC50 (H1755 cells) was 84 nM.
